Test results as given in ChEMBL document CHEMBL1201862, “PubChem BioAssay data set” (2004).
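Compound exposure: 48 hours, 5 concentrations, 96-well plates. At the GI50, growth is halved.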 Active and inactive are the calls of the source. Cut-off read from the data, not from the text of the source: active = GI50 up to about 1.1 µM and inactive = higher.

Key:
Assay in all cases: growth of human tumour cells (NCI), 48 h
CCRF-CEM = system: CCRF-CEM
SF-295 = system: SF-295
SW-620 = system: SW-620
UACC-62 = system: UACC-62
TK-10 = system: TK-10
OVCAR-3 = system: OVCAR-3
HOP-92 = system: HOP-92
CAKI-1 = system: CAKI-1
IGROV-1 = system: IGROV-1
DLD-1 = system: DLD-1
RPMI-8226 = system: RPMI-8226
SNB-78 = system: SNB-78
SK-OV-3 = system: SK-OV-3
EKVX = system: EKVX
SNB-75 = system: SNB-75
HCT-116 = system: HCT-116
NCI-H460 = system: NCI-H460
MDA-MB-231 = system: MDA-MB-231
Hs-578T = system: Hs-578T

SMILES | GI50 (CCRF-CEM) | GI50 (SF-295) | GI50 (SW-620) | GI50 (UACC-62) | GI50 (TK-10) | GI50 (OVCAR-3) | GI50 (HOP-92) | GI50 (CAKI-1) | GI50 (IGROV-1) | GI50 (DLD-1) | GI50 (RPMI-8226) | GI50 (SNB-78) | GI50 (SK-OV-3) | GI50 (EKVX) | GI50 (SNB-75) | GI50 (HCT-116) | GI50 (NCI-H460) | GI50 (MDA-MB-231) | GI50 (Hs-578T)
CC(C)c1cccc(=O)c(O)c1 | 0.845 µM (active) | 3.39 µM (inactive) | 1.79 µM (inactive) | 2.67 µM (inactive) | 1.25 µM (inactive) | 1.24 µM (inactive) | 1.75 µM (inactive) | 1.64 µM (inactive) | 7.8 µM (inactive) | 1.73 µM (inactive) | 2.14 µM (inactive) | 2.1 µM (inactive) | 15.8 µM (inactive) | 5.78 µM (inactive) | 6.18 µM (inactive) | 1.72 µM (inactive) | 2.27 µM (inactive) |  | 
Cn1cccc1/C=C/c1cc(Br)c(/C=C/c2cccn2C)cc1Br | 15.2 µM (inactive) | 20.9 µM (inactive) | 20.9 µM (inactive) | 13.8 µM (inactive) | 22.5 µM (inactive) | 16.1 µM (inactive) | 11.7 µM (inactive) | 15.3 µM (inactive) | 15.8 µM (inactive) | 0.643 µM (active) | 15.2 µM (inactive) |  | 14.8 µM (inactive) | 11.1 µM (inactive) | 3.13 µM (inactive) | 16.3 µM (inactive) | 17.9 µM (inactive) |  | 
CC(C)=CCC[C@@H](C)C1=C(O)C(=O)C(C)=C(N)C1=O | 6.11 µM (inactive) | 12.9 µM (inactive) | 43.1 µM (inactive) | 15.6 µM (inactive) | 50.2 µM (inactive) | 27.9 µM (inactive) | 53.8 µM (inactive) | 24 µM (inactive) | 7.69 µM (inactive) |  | 27.3 µM (inactive) |  | 27.3 µM (inactive) | 36.1 µM (inactive) | 28.8 µM (inactive) | 45.1 µM (inactive) | 10.2 µM (inactive) | 46.5 µM (inactive) | 38.9 µM (inactive)
O=NC1C(Cl)C2CC1C1C(Br)C(Br)CC21 (stereo not drawn) | 62.7 µM (inactive) | > 100 µM (inactive) | > 100 µM (inactive) | > 100 µM (inactive) | > 100 µM (inactive) | > 100 µM (inactive) | > 100 µM (inactive) | > 100 µM (inactive) | > 100 µM (inactive) |  | 20.8 µM (inactive) |  | > 100 µM (inactive) | > 100 µM (inactive) | > 100 µM (inactive) | > 100 µM (inactive) | > 100 µM (inactive) | > 100 µM (inactive) | > 100 µM (inactive)
CCOc1ccc(C2c3[nH]c4ccccc4c3CCN2C(=O)c2cccs2)cc1 (stereo not drawn) | 3.48 µM (inactive) | 6.03 µM (inactive) | 21.1 µM (inactive) | 6.04 µM (inactive) | > 100 µM (inactive) | 9.89 µM (inactive) | > 100 µM (inactive) | 9.14 µM (inactive) | 10.2 µM (inactive) |  | 5.41 µM (inactive) |  | > 100 µM (inactive) | 7.35 µM (inactive) | 35.6 µM (inactive) | 4.8 µM (inactive) | 2.2 µM (inactive) | 9.33 µM (inactive) | 63.1 µM (inactive)
[N-]=[N+]=NC1(Cc2ccccc2)C(=O)c2cccc3c2N(CCC3)C1=O (stereo not drawn) | > 100 µM (inactive) | > 100 µM (inactive) | > 100 µM (inactive) | > 100 µM (inactive) | > 100 µM (inactive) |  | > 100 µM (inactive) | > 100 µM (inactive) | > 100 µM (inactive) | > 100 µM (inactive) | > 100 µM (inactive) |  | 40.3 µM (inactive) |  | > 100 µM (inactive) | > 100 µM (inactive) | > 100 µM (inactive) |  | 
CC(=O)OCCOCn1c2ccccc2c2c3c(c4c5ccccc5n(COCCOC(C)=O)c4c21)C(=O)N(Cc1ccccc1)C3=O | > 100 µM (inactive) |  | > 100 µM (inactive) | > 100 µM (inactive) | > 100 µM (inactive) |  | 55.5 µM (inactive) |  | > 100 µM (inactive) | > 100 µM (inactive) | > 100 µM (inactive) | > 100 µM (inactive) | > 100 µM (inactive) | > 100 µM (inactive) | 76.7 µM (inactive) | > 100 µM (inactive) | > 100 µM (inactive) |  | 
COC1OC(CBr)C(OC(=O)c2ccccc2)C(OS(=O)(=O)c2ccc(C)cc2)C1Br (stereo not drawn) | > 100 µM (inactive) | > 100 µM (inactive) | > 100 µM (inactive) | > 10 µM (inactive) | > 100 µM (inactive) | > 100 µM (inactive) | 70.1 µM (inactive) | > 100 µM (inactive) | > 10 µM (inactive) |  | > 100 µM (inactive) | > 100 µM (inactive) | > 10 µM (inactive) | > 100 µM (inactive) |  | > 100 µM (inactive) | > 100 µM (inactive) |  | 
CC(=O)O[C@@H]1[C@H](OC2CCCCC2(c2ccccc2)c2ccccc2)O[N+]([O-])=CC12CCCCC2 (stereo partly drawn) | 0.17 µM (active) | 15.7 µM (inactive) | 16 µM (inactive) | 17.7 µM (inactive) | 16.7 µM (inactive) | 14.9 µM (inactive) | 24.5 µM (inactive) | 14.4 µM (inactive) | 20.1 µM (inactive) |  | 33 µM (inactive) |  | 13.4 µM (inactive) | 17.9 µM (inactive) | 15.9 µM (inactive) | 17.6 µM (inactive) | 18.2 µM (inactive) | 15.4 µM (inactive) | 19.2 µM (inactive)
COc1ccc2/c(=C/c3ccc(N(C)C)cc3)c3cc(-c4ccccc4)[n+](C)n3c2c1 | 0.395 µM (active) | 0.194 µM (active) | 0.15 µM (active) | 0.199 µM (active) | 0.239 µM (active) | 0.0834 µM (active) | 0.0931 µM (active) | 1.2 µM (inactive) | 0.112 µM (active) |  | 0.0263 µM (active) |  | 0.282 µM (active) | 0.817 µM (active) | 0.285 µM (active) | 0.17 µM (active) | 0.245 µM (active) | 0.31 µM (active) | 0.142 µM (active)
Cc1ccc2nc(-c3ccccc3)c(N=O)n2c1 | 38.5 µM (inactive) | 87.1 µM (inactive) | 53.6 µM (inactive) | 22.6 µM (inactive) | 38.3 µM (inactive) | 32.4 µM (inactive) | 77.1 µM (inactive) | 37.1 µM (inactive) | 35.5 µM (inactive) |  | 36.1 µM (inactive) |  | > 100 µM (inactive) | 20.5 µM (inactive) | 76.7 µM (inactive) | 35.7 µM (inactive) | 50.1 µM (inactive) | 17.4 µM (inactive) | 79.4 µM (inactive)
CCOC(=O)C1=C(C)N2CCOC2(C)C(C(=O)OC)C1c1cccc(Cl)c1 (stereo not drawn) | > 100 µM (inactive) | > 100 µM (inactive) | > 100 µM (inactive) | 88.7 µM (inactive) | > 100 µM (inactive) | > 100 µM (inactive) | 31.6 µM (inactive) | > 100 µM (inactive) | > 100 µM (inactive) | > 100 µM (inactive) | > 100 µM (inactive) | > 100 µM (inactive) | > 100 µM (inactive) | > 100 µM (inactive) | > 100 µM (inactive) | > 100 µM (inactive) | > 100 µM (inactive) |  | 
CC(=O)Oc1cc(-c2oc3cc(OC(C)=O)c(C4OC(CO)C(O)C(O)C4O)c(OC(C)=O)c3c(=O)c2O)c(OC(C)=O)cc1O (stereo not drawn) | 89.9 µM (inactive) | > 100 µM (inactive) | > 100 µM (inactive) | > 100 µM (inactive) | > 100 µM (inactive) | > 100 µM (inactive) | 26.3 µM (inactive) | > 100 µM (inactive) | > 100 µM (inactive) |  | 56.4 µM (inactive) |  | > 100 µM (inactive) | > 100 µM (inactive) | 60.4 µM (inactive) | > 100 µM (inactive) | > 100 µM (inactive) | > 100 µM (inactive) | > 100 µM (inactive)
COc1cccc(C[C@H]2COC(=O)[C@]2(O)Cc2cccc(OC)c2)c1 | > 100 µM (inactive) | 83 µM (inactive) | > 100 µM (inactive) | 60.1 µM (inactive) | 70.6 µM (inactive) | 97.5 µM (inactive) | 79.6 µM (inactive) | 18.1 µM (inactive) | > 100 µM (inactive) |  | 93.3 µM (inactive) |  | > 100 µM (inactive) | 26.5 µM (inactive) | > 100 µM (inactive) | > 100 µM (inactive) | 48.2 µM (inactive) | > 100 µM (inactive) | > 100 µM (inactive)
C[C@H](CCC(=O)NCC(=O)O)[C@H]1CC[C@H]2[C@@H]3[C@H](O)C[C@@H]4C[C@H](O)CC[C@]4(C)[C@H]3CC[C@]12C | > 100 µM (inactive) | > 100 µM (inactive) | > 100 µM (inactive) | > 100 µM (inactive) | > 100 µM (inactive) | > 100 µM (inactive) | > 100 µM (inactive) | > 100 µM (inactive) | > 100 µM (inactive) |  | > 100 µM (inactive) |  | > 100 µM (inactive) | > 100 µM (inactive) | 0.75 µM (active) | > 100 µM (inactive) | > 100 µM (inactive) | > 100 µM (inactive) | > 100 µM (inactive)
CCOC(=O)C1=C(C)NC(=S)NC1c1cccc(O)c1 (stereo not drawn) [MONASTROL] | 34.7 µM (inactive) | 30.5 µM (inactive) | 44.3 µM (inactive) | 36.6 µM (inactive) | > 100 µM (inactive) | 50.9 µM (inactive) | 32.4 µM (inactive) | 63.8 µM (inactive) | 51.1 µM (inactive) |  | 31 µM (inactive) |  | 57.8 µM (inactive) | 62.7 µM (inactive) | 37.2 µM (inactive) | 34.9 µM (inactive) | 39.8 µM (inactive) | 38.6 µM (inactive) | 45.7 µM (inactive)
